target: T1, A disintegrin and metalloproteinase with thrombospondin motifs 4 (Homo sapiens, UniProt O75173); test: Inhibition of recombinant human ADAMTS4 (213 to 575 amino acid residues) using WAAG-3R as substrate preincubated for 15 mins followed by substrate addition measured every 30 secs for 1 hr
T1 sequence (O75173 whole entry): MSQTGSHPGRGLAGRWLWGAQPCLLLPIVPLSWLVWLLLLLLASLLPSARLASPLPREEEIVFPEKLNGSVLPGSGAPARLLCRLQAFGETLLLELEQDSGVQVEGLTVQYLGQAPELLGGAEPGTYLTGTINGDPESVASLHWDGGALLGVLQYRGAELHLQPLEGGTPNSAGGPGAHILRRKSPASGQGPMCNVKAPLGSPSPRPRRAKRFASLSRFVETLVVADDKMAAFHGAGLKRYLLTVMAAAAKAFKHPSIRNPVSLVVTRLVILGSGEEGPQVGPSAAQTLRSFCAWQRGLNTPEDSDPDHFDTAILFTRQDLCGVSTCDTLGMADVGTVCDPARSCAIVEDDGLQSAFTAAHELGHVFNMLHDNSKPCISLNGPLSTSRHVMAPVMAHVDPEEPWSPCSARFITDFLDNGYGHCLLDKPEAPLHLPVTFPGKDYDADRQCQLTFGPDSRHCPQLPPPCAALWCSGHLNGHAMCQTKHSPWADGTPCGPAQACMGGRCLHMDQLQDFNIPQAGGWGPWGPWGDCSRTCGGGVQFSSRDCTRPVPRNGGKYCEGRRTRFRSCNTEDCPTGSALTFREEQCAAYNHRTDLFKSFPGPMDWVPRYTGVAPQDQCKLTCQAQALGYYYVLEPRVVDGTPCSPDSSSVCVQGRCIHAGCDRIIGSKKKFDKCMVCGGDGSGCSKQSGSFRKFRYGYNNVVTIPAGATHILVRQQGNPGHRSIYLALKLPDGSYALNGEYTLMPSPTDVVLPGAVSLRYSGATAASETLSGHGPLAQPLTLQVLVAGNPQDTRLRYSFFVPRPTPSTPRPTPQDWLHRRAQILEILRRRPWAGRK

Row | IC50 [nM] | SMILES
1 | > 10000 | CCN(C(=O)c1ccc(CNc2ncnc(N3CCCCC3)n2)cc1)c1cccc(C)c1
2 | 5600 | CCN(C(=O)c1ccc(CNc2ncnc(N3Cc4ccccc4C3)n2)cc1)c1cccc(C)c1
3 | 23 | CCN(C(=O)c1ccc(CNc2ncnc(N3CCc4cc(OC)c(OC)cc4C3)n2)cc1)c1cccc(C)c1
4 | 370 | CCN(C(=O)c1ccc(CNc2ncnc(N3CCc4cc(F)ccc4C3)n2)cc1)c1cccc(C)c1
5 | 22 | CCN(C(=O)c1ccc(CNc2nc(O)nc(N3CCc4cc(OC)c(OC)cc4C3)n2)cc1)c1cccc(C)c1
6 | 61 | CCN(C(=O)c1ccc(CNc2nc(NCc3ccccc3)nc(N3CCc4ccccc4C3)n2)cc1)c1cccc(C)c1
7 | 6 | CCN(C(=O)c1ccc(CNc2nc(NCCN3CCN(C)CC3)nc(N3CCc4ccccc4C3)n2)cc1)c1cccc(C)c1
8 | 60 | CCN(C(=O)c1ccc(CNc2nc(NCc3ccccc3)nc(N3CCc4cc(OC)c(OC)cc4C3)n2)cc1)c1cccc(C)c1
9 | 43 | CCN(C)C(=O)c1ccc(CNc2nc(NCCN(C)C)nc(N3CCc4ccccc4C3)n2)cc1
10 | 63 | CCN(C(=O)c1ccc(CNc2ncnc(N3CCc4ccccc4C3)n2)cc1)c1cccc(C)c1
11 | 181 | CCN(C(=O)c1ccc(CNc2nc(Nc3ccccc3)nc(N3CCc4cc(OC)c(OC)cc4C3)n2)cc1)c1cccc(C)c1
12 | 1700 | CCN(C)C(=O)c1ccc(CNc2ncnc(N3CCc4ccccc4C3)n2)cc1
13 | 102 | CCN(C(=O)c1ccc(CNc2nc(Cl)nc(N3CCc4cc(OC)c(OC)cc4C3)n2)cc1)c1cccc(C)c1
14 | 1820 | CCN(C)C(=O)c1ccc(CNc2ncnc(N3CCc4cc(OC)c(OC)cc4C3)n2)cc1
15 | 333 | CCN(C(=O)c1ccc(CNc2ncnc(N3CCc4ccc(F)cc4C3)n2)cc1)c1cccc(C)c1
16 | 60 | CCN(C(=O)c1ccc(CNc2nc(NC(C)C)nc(N3CCc4cc(OC)c(OC)cc4C3)n2)cc1)c1cccc(C)c1
17 | 30 | CCN(C(=O)c1ccc(CNc2nc(NC)nc(N3CCc4cc(OC)c(OC)cc4C3)n2)cc1)c1cccc(C)c1
18 | 8 | CCN(C(=O)c1ccc(CNc2nc(NCCN(C)C)nc(N3CCc4ccccc4C3)n2)cc1)c1cccc(C)c1

The next lines start with the molecule.

Row | SMILES | IC50 [nM]
19 | CCN(C)C(=O)c1ccc(CNc2nc(N3CCN(C)CC3)nc(N3CCc4cc(OC)c(OC)cc4C3)n2)cc1 | 8500
20 | CCN(C)C(=O)c1ccc(CNc2nc(NCCN3CCN(C)CC3)nc(N3CCc4cc(OC)c(OC)cc4C3)n2)cc1 | 64
21 | COc1cc2c(cc1OC)CN(c1nc(NCCN3CCN(C)CC3)nc(NCc3ccc(C(=O)O)cc3)n1)CC2 | > 10000
22 | CNC(=O)c1ccc(CNc2nc(NCCN3CCN(C)CC3)nc(N3CCc4cc(OC)c(OC)cc4C3)n2)cc1 | 3000
23 | CCN(C)C(=O)c1ccc(CNc2nc(N3CCN(C)CC3)nc(N3CCc4ccccc4C3)n2)cc1 | 5500
24 | CCN(C(=O)c1ccc(CNc2ncnc(NCc3ccc(OC)c(OC)c3)n2)cc1)c1cccc(C)c1 | 158
25 | CCN(C(=O)c1ccc(CNc2nc(NCCN3CCN(C)CC3)nc(N3CCCc4ccccc43)n2)cc1)c1cccc(C)c1 | 6500
26 | CCN(C(=O)c1ccc(CNc2nc(NC3CCCCC3)nc(N3CCc4cc(OC)c(OC)cc4C3)n2)cc1)c1cccc(C)c1 | 284
27 | CCN(C(=O)c1ccc(CNc2nc(NCCN(C)C)nc(N3CCc4cc(OC)c(OC)cc4C3)n2)cc1)c1cccc(C)c1 | 14
28 | CCN(C(=O)c1ccc(CNc2nc(NCCc3ccco3)nc(N3CCc4cc(OC)c(OC)cc4C3)n2)cc1)c1cccc(C)c1 | 163
29 | CCN(C(=O)c1ccc(CNc2nc(NCC(=O)O)nc(N3CCc4cc(OC)c(OC)cc4C3)n2)cc1)c1cccc(C)c1 | 88
30 | COc1cc2c(cc1OC)CN(c1nc(NCCN3CCN(C)CC3)nc(NCc3ccc(C(=O)Nc4cccc(C)c4)cc3)n1)CC2 | 518
31 | COc1cc2c(cc1OC)CN(c1nc(NCCN3CCN(C)CC3)nc(NCc3ccccc3)n1)CC2 | 3000
32 | CCN(C(=O)c1ccc(CNc2nc(NCCN3CCN(C)CC3)nc(N3CCc4cc(OC)c(OC)cc4C3)n2)cc1)c1cccc(C)c1 | 10
33 | CCN(C)C(=O)c1ccc(CNc2nc(NCCN(C)C)nc(N3CCc4cc(OC)c(OC)cc4C3)n2)cc1 | 81

target: T2, A disintegrin and metalloproteinase with thrombospondin motifs 5 (Homo sapiens) (UniProt Q9UNA0); test: Inhibition of ADAMTS5 (unknown origin) using WAAG-3R as substrate at 10 uM preincubated for 15 mins followed by substrate addition measured every 30 secs for 1 hr relative to control
T2 sequence (whole entry): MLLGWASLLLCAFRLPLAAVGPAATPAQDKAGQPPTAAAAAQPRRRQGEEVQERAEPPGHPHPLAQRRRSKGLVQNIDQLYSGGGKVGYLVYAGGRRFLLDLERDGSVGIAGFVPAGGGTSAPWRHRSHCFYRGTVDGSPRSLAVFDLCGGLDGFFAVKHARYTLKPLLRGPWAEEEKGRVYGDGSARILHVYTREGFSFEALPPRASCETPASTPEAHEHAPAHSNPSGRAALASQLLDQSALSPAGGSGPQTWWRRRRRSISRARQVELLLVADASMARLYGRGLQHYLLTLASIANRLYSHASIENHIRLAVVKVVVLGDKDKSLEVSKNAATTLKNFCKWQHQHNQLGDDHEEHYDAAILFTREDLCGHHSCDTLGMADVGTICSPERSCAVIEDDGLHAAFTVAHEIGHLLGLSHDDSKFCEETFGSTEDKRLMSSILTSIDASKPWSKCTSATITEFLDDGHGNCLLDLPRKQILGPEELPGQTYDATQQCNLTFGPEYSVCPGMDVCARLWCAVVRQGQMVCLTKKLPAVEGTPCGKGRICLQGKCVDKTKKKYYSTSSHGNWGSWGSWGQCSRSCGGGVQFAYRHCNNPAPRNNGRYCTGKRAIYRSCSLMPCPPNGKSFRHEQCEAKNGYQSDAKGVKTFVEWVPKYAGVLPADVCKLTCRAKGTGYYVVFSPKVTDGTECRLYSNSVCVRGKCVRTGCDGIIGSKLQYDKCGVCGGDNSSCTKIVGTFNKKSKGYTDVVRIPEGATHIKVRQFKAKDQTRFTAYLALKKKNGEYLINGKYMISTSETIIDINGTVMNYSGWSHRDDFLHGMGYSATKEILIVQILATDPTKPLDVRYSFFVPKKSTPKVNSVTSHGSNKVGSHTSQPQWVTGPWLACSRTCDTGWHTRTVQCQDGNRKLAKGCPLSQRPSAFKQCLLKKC

Row | inhibition [%] | SMILES
34 | 30 | CCN(C(=O)c1ccc(CNc2nc(NCCN3CCN(C)CC3)nc(N3CCc4cc(OC)c(OC)cc4C3)n2)cc1)c1cccc(C)c1

target: T3, A disintegrin and metalloproteinase with thrombospondin motifs 5 (Homo sapiens, UniProt Q9UNA0); test: Inhibition of ADAMTS5 (unknown origin) using WAAG-3R as substrate preincubated for 15 mins followed by substrate addition measured every 30 secs for 1 hr
T3 sequence (Q9UNA0 whole entry): T2 sequence (whole entry)

Row | IC50 [nM] | SMILES
35 | > 10000 | CCN(C(=O)c1ccc(CNc2nc(NCCN3CCN(C)CC3)nc(N3CCc4cc(OC)c(OC)cc4C3)n2)cc1)c1cccc(C)c1

target: T4, A disintegrin and metalloproteinase with thrombospondin motifs 13 (Homo sapiens, UniProt Q76LX8); test: Inhibition of human recombinant ADAMTS13 using FRETSVWF73 as substrate by fluorescence assay
T4 sequence (Q76LX8 whole entry): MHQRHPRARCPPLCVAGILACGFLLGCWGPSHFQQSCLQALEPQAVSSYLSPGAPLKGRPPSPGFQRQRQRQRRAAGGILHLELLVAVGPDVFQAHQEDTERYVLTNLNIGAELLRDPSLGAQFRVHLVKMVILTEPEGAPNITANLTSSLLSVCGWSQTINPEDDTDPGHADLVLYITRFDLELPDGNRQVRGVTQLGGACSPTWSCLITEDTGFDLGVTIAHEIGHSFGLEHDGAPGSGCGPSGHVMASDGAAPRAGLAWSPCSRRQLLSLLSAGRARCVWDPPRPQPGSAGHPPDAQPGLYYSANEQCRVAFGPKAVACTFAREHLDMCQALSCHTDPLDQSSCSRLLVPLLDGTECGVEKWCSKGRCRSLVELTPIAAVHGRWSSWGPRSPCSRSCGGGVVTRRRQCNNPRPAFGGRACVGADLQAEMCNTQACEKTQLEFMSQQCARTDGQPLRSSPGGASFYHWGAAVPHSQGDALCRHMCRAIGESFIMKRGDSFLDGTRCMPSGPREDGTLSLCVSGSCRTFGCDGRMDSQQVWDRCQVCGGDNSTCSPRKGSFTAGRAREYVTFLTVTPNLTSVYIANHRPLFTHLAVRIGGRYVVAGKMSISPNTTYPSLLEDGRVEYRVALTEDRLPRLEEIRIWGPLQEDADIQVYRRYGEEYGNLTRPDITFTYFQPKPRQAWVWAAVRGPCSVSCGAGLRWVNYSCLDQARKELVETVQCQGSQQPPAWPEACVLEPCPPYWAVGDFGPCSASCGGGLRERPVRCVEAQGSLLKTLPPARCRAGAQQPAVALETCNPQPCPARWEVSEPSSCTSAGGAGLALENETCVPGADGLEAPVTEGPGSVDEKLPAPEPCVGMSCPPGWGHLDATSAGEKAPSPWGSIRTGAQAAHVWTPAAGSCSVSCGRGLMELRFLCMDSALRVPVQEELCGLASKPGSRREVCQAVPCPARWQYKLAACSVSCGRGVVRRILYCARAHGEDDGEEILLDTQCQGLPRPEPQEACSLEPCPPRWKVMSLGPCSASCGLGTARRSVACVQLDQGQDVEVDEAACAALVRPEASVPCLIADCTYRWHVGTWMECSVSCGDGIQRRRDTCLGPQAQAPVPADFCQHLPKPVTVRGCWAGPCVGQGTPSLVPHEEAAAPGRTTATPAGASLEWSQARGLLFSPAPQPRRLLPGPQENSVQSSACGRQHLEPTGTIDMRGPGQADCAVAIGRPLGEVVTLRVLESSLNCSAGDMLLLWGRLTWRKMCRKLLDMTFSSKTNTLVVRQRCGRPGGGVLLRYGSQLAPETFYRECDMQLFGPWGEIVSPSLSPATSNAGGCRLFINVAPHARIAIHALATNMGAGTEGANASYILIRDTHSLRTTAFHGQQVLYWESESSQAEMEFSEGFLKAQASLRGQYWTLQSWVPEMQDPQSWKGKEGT

Row | IC50 [nM] | SMILES
36 | > 10000 | CCN(C(=O)c1ccc(CNc2nc(NCCN3CCN(C)CC3)nc(N3CCc4cc(OC)c(OC)cc4C3)n2)cc1)c1cccc(C)c1

target: Collagenase 3 (Homo sapiens, UniProt P45452); test: Inhibition of human recombinant MMP13 using 5-FAMTPGPLGL[Dap(DNP)]ARRK(5-TAMRA)-amide as substrate after 45 mins

Row | IC50 [nM] | SMILES
37 | > 10000 | CCN(C(=O)c1ccc(CNc2nc(NCCN3CCN(C)CC3)nc(N3CCc4cc(OC)c(OC)cc4C3)n2)cc1)c1cccc(C)c1

target: Disintegrin and metalloproteinase domain-containing protein 17 (Homo sapiens, UniProt P78536); test: Inhibition of human recombinant TACE using Mca-PLAQAV-Dpa-RSSSR-NH2 as substrate preincubated for 15 mins measured every 30 secs for 30 mins by fluorescence assay
Sequence (P78536 whole entry, the tested form may be a part): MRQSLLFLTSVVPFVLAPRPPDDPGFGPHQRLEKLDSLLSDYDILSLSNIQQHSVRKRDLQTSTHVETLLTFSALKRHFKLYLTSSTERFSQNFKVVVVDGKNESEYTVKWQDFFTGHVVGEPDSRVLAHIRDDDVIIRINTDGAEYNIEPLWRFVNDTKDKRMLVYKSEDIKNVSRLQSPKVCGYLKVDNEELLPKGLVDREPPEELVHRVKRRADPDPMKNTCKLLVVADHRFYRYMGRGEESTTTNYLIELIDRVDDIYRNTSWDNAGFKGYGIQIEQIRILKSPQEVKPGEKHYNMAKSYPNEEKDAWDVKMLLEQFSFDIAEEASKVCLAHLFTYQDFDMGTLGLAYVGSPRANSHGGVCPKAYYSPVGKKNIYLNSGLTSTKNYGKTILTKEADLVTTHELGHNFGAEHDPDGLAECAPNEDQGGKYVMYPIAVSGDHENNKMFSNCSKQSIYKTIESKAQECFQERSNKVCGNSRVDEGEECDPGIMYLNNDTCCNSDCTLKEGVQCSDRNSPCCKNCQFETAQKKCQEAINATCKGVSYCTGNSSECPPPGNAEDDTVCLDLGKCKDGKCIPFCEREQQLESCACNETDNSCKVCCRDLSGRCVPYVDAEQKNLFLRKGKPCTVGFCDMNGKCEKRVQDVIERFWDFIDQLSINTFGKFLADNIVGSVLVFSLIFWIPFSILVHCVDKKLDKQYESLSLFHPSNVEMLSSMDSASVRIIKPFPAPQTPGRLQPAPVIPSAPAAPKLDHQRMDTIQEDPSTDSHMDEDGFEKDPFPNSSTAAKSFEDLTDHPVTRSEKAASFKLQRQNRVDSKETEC

Row | IC50 [nM] | SMILES
38 | > 10000 | CCN(C(=O)c1ccc(CNc2nc(NCCN3CCN(C)CC3)nc(N3CCc4cc(OC)c(OC)cc4C3)n2)cc1)c1cccc(C)c1

Reference: ChEMBL document CHEMBL3621096, “Discovery of Potent and Selective Inhibitors for ADAMTS-4 through DNA-Encoded Library Technology (ELT)” (ACS Med Chem Lett, 2015)
